Test results published in PubChem BioAssay (NCI).
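Growth conditions: 96-well plates. Treatment: test compound, 48 hours, 5 concentrations. Analysis: linear interpolation between bracketing concentrations; unreached endpoints set to highest concentration. At the GI50, growth is halved. TGI marks complete inhibition of growth.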

How the values were obtained:
Assay in all cases: NCI-60 cell line screen, 48 h
OVCAR-4 ovarian = tested on: OVCAR-4 ovarian
CCRF-CEM leukemia = tested on: CCRF-CEM leukemia
SF-539 CNS = tested on: SF-539 CNS
LOX IMVI melanoma = tested on: LOX IMVI melanoma
K-562 leukemia = tested on: K-562 leukemia
MALME-3M melanoma = tested on: MALME-3M melanoma
786-0 renal = tested on: 786-0 renal
PC-3 prostate = tested on: PC-3 prostate
NCI/ADR-RES ovarian = tested on: NCI/ADR-RES ovarian

SMILES	TGI (OVCAR-4 ovarian) [µM]	TGI (CCRF-CEM leukemia) [µM]	TGI (SF-539 CNS) [µM]	TGI (LOX IMVI melanoma) [µM]	TGI (K-562 leukemia) [µM]	TGI (MALME-3M melanoma) [µM]	TGI (786-0 renal) [µM]	GI50 (OVCAR-4 ovarian) [µM]	GI50 (CCRF-CEM leukemia) [µM]	GI50 (SF-539 CNS) [µM]	GI50 (LOX IMVI melanoma) [µM]	GI50 (K-562 leukemia) [µM]	GI50 (786-0 renal) [µM]	GI50 (PC-3 prostate) [µM]	TGI (PC-3 prostate) [µM]	GI50 (NCI/ADR-RES ovarian) [µM]	TGI (NCI/ADR-RES ovarian) [µM]
COc1ccc(/C=N\N2C(=O)Cc3ccccc32)cc1	> 100	> 100	> 100	> 100	> 100	> 100	> 100										
CC(=O)OC1CC[C@@]2(C)C(CC(OC3OC(CO)C(O)C(O)C3O)[C@]3(C)C2CCC24CC23CC[C@H]4C(C)CC(O)[C@@H](O)C(C)(C)O)C1(C)C (stereo partly drawn)	> 50	25.7	19.1	15.5	43.4	18.8	30.7										
COc1cc(OC)c(Oc2cccc(OC)c2OC)c(OC)c1	> 100	> 100	> 100	> 100	> 100		> 100										
COC1=C(C(=O)OC(C)(C)C)C23CCCCC2(C(C(=O)OC(C)(C)C)=C(OC)C3C(=O)OC(C)(C)C)C1C(=O)OC(C)(C)C (stereo not drawn)	> 100	> 100	> 100	> 100	> 100	> 100	> 100										
Nc1ccc(Cl)cc1.Nc1ccc(Cl)cc1.Nc1ccc(Cl)cc1.O=C([O-])C(=O)[O-].O=C([O-])C(=O)[O-].[H+].[Ru+5]	> 100	> 68	> 100	> 100	> 100	> 100	> 100	> 100	0.176	0.352	> 100	< 0.0169	1.44				
COc1ncn(C2C=C(CO)C(O)C2O)c(=O)n1 (stereo not drawn)	> 100		> 100		> 100	> 100	> 100										
O=C1/C=C(/c2ccc(O)cc2)[C@H](O)Cc2ccc(OC3OC(CO)C(O)C(O)C3O)cc2O1 (stereo partly drawn) (tested in a mixture with another compound)	> 100		> 100	> 100		> 100	> 100										
Cc1cc(C)c(-c2noc(-c3ccc(Cl)cc3)c2C2=NCCN2)c(C)c1	> 100	74.7	32	42.9	37.4	37.7	29.3										
Cn1c(=O)c(C2c3ccccc3Oc3c2c(=O)n(C)c2ccccc32)c(O)c2ccccc21 (stereo not drawn)	> 100		> 100	> 100	> 100	> 100	> 100										
O=C(Nc1ccc(Cl)cc1Cl)c1c/c(=N\O)c2ccc(O)cc2o1	> 100	> 100	> 100	> 100	> 100	> 100	> 100										
COc1ccc(OC)c(-c2cc(-c3ccc(Cl)cc3)nn2-c2ccc(S(N)(=O)=O)cc2)c1			34.3		4.87		27.1			17.6		2.07	13.2	3.62	15.7	6.54	22.2
COc1ccccc1NC(=O)CC(=O)NNCC(=O)Nc1nc(-c2ccccc2)cs1	> 100	> 100	> 100	> 100	> 100		> 100										
COC(=O)C(=O)C(C(=O)C(=O)Nc1ccc(Cl)cc1Cl)c1nc2ccc(Cl)cc2[nH]c1=O (stereo not drawn)	> 100	> 100	> 100	> 100			> 100								> 100		> 100
CCCCc1c2c(nc3c1CCc1cc(C=O)c(N)nc1-3)/C(=C/c1ccccc1)CCC2	> 100	> 100	> 100	> 100	> 100	> 100	> 100										
N#CC1(Cc2ccccc2Cl)c2ccccc2C=CN1C(=O)c1ccccc1 (stereo not drawn)		> 100	> 100	> 100	> 100	> 100	> 100										
CCCCCCCCOCC(O)COC (stereo not drawn)	> 100	> 100		> 100	> 100	> 100	> 100										
CC(C)CCC[C@@H](C)C1CCC2[C@@H]3CC=C4C[C@@H](OC(=O)CCC(=O)NCC[N+](C)(C)CCCS(=O)(=O)[O-])CC[C@]4(C)C3CC[C@@]21C (stereo partly drawn)	34.5	42.6	31.4	33.1	37.6	43.7	67.9										
CCOC(=O)C(=C=Cc1cccs1)C(=O)c1ccccc1	39.4	> 100	30.6	24.9	> 100	29.3	29.5										
c1cc(C2O[C@H]3CCCN3[C@@H]2c2ccncc2)ccn1 (stereo partly drawn)	> 100	> 100	> 100	> 100	> 100	> 100	> 100										
